According to patent US20100273772A1, “Bisaryl Alkynylamides as Negative Allosteric Modulators of Metabotropic Glutamate Receptor 5 (MGLUR5)” (Wyeth LLC, priority 2009, published 2010):

What was measured:
rat mGluR5 receptor = target: T1, rat mGluR5 receptor (Rattus norvegicus, UniProt P31424); test: [3H]-MPEP binding HEK-293 cell membranes expressing a rat mGluR5 receptor; conditions: displacement of 4 nM [3H]-MPEP, HEK-293 cell membranes expressing rat mGluR5, 60 minute at room temperature; read-out: mGluR5 Ligand Binding DR Ki
T1 construct: expressed in transfected cells; host or cells: HEK-293
T1 sequence (P31424 21-1203): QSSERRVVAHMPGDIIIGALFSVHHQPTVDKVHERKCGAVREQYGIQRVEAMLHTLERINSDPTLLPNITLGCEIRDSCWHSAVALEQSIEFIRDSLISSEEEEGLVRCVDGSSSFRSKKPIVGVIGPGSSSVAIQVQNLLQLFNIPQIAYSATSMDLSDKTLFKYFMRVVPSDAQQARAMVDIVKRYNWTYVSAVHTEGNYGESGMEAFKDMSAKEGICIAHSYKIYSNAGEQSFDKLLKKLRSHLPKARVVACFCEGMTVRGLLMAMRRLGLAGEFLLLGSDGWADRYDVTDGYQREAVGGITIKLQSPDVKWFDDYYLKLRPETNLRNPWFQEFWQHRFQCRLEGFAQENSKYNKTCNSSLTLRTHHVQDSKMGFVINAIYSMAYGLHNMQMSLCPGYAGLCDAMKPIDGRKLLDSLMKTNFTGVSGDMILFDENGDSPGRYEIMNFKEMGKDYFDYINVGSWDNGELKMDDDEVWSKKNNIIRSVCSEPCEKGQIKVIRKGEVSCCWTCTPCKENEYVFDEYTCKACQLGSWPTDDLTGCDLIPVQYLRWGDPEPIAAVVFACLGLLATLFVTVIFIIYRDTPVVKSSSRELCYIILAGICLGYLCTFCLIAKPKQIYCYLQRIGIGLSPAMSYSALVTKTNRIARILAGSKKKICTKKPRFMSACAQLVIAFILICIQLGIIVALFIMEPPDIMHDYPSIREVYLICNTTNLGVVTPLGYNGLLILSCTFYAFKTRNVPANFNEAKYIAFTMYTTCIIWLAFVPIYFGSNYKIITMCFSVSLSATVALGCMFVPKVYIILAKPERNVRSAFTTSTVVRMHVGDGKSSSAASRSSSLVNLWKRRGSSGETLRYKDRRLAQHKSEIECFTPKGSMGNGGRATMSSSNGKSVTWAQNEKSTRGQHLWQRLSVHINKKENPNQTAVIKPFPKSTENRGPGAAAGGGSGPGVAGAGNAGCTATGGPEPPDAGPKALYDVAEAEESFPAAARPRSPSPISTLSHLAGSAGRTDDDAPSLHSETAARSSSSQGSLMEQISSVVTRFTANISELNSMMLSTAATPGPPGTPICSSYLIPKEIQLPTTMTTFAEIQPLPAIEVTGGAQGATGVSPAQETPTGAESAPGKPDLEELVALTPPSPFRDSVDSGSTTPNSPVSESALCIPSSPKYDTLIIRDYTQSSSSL
Method: TITLE: [^3H]-MPEP binding HEK-293 cell membranes expressing a rat mGluR5 receptor. PURPOSE: To identify high affinity compounds at the rat mGluR5 receptor based on their ability to displace the mGluR5 negative allosteric modulator, MPEP.
mGluR5 expressing HEK-293 cells are scraped off the plate, transferred to centrifuge tubes, and washed twice by centrifugation (2000 rpm for 10 min., 4° C.) in buffer (50 mM Tris pH 7.5). The resulting pellets are aliquoted and placed at −80° C. On the day of assay, the cells are thawed on ice, and resuspended in buffer. The binding assay is performed in a 96 well microtiter plate in a total volume of 250 μL. Non-specific binding is determined in the presence of 10 μM MPEP. Binding reaction includes a final radioligand [^3H]-MPEP concentration of 4 nM and 12-25 ug membrane protein per well. Following a 60 minute incubation at room temperature, the reaction is terminated by the addition of ice cold buffer and rapid filtration through a GF/B filter presoaked for 30 minutes in 0.5% PEI. Compounds are initially tested in a single point assay to determine percent inhibition at 10 μM. Subsequently, Ki values are determined for compounds defined to be active.
% inhibition and Ki values generated by GraphPad Prism and Excel Fit. IC50 values are calculated using GraphPad by fitting to a 1 or 2 site-binding model. Ki values are calculated from the apparent IC50 values using the Cheng-Prussof equation:
(§1) where [L]=concentration of free radioligand and Kd=dissociation constant of radioligand for the receptor. TITLE: Identification of metabotropic glutamate receptor 5 antagonists using a stable, sensitive fluorescence-based screening system PURPOSE: The aim of the research presented here was to develop a robust functional assay to measure changes in intracellular calcium, with the goal of identifying potent mGluR5 antagonists.

[1] = target: T2, metabotropic glutamate receptor 5 (Rattus norvegicus, UniProt P31424); test: FLIPR Calcium 3 fluorescence-based functional assay of intracellular calcium, mGluR5 antagonist activity; type: cell-based; conditions: inhibition of glutamate (EC90, ~50 uM) stimulated calcium levels, mGluR5 HEK-293 cells; read-out: mGluR5 FLIPR MP Antagonist DR IC50
T2 construct: expressed in transfected cells; host or cells: HEK-293
T2 sequence (P31424 21-1203): as above
Text: as §1
The FLIPR Calcium 3 Assay Kit is designed to work with many cell types, both adherent and non-adherent. Optimal cell conditions for the FLIPR Calcium 3 Assay Kit require the creation of a confluent cell monolayer before placing the plates in FLIPR or FlexStation. In general, we start with 50,000 mGluR5 HEK-293 cells/well for a 96-well plate. For adherent cells, seeding cells overnight with a plating volume of 100 μL/well worked for 96-well plates.
Remove cell plates from the incubator. Remove the supernatant medium. Add 180 ul of Loading Buffer to each well (for 96-well plates). HBSS buffer component B) pipette 100 mL of 10× Hank's Balanced Salt Solution and 20 mL of 1M Hepes buffer
Incubate cell plates for 1 hour at 37° C. and then keep the plates at room temperature until used.
After incubation, transfer the plates directly to FLIPR and begin the calcium assay as described in the FLIPR system manual. For a signal test, a starting average count of ˜10,000 is recommended. Recommended experimental setup parameters are as follows. Faster addition speeds can lead to better mixing of compounds and lower signal variance across the plate.
Test or reference compound is added to the 96-well plate (manually). […] Relative Fluorescence Units (RFUs) are recorded over a given time period (stated above) depending on the platform system used.
For antagonists, results are expressed as % inhibition of glutamate stimulated Calcium levels. IC50 values were calculated by Prism GraphPad using a 4-parameter logistic equation. IC50 values are calculated using GraphPad by fitting to a 1 site-model.

| SMILES | Ki (rat mGluR5 receptor) [nM] | IC50 [1] [nM] |
| --- | --- | --- |
| COc1ccc(C(=O)N2CCc3ccccc3C2c2cccs2)cc1C#Cc1ccccn1 (centres unmarked) [Example 22, 2-[4-methoxy-3-(pyridin-2-ylethynyl)benzoyl]-1-(2-thienyl)-1,2,3,4-tetrahydroisoquinoline] | 22 | 220 |
| COc1ccc(C(=O)N2Cc3ccccc3C(S(=O)(=O)N3CCS(=O)(=O)CC3)C2)cc1C#Cc1ccccn1 (centres unmarked) [Example 25, 4-[(1,1-dioxidothiomorpholin-4-yl)sulfonyl]-2-[4-methoxy-3-(pyridin-2-ylethynyl)benzoyl]-1,2,3,4-tetrahydroisoquinoline] | 70 | 97 |
| COc1ccc(C(=O)N2CCc3ccccc3C2c2ccccc2)cc1C#Cc1ccccn1 (centres unmarked) [Example 26, 2-[4-methoxy-3-(pyridin-2-ylethynyl)benzoyl]-1-phenyl-1,2,3,4-tetrahydroisoquinoline] | 57 | 169 |
| COc1ccc(C(=O)N2CCc3ccccc3C2c2ccco2)cc1C#Cc1ccccn1 (centres unmarked) [Example 27, 1-(2-furyl)-2-[4-methoxy-3-(pyridin-2-ylethynyl)benzoyl]-1,2,3,4-tetrahydroisoquinoline] | 21 | 40 |
| COc1ccc(C(=O)N2Cc3ccccc3C(CNc3ccccc3)C2)cc1C#Cc1ccccn1 (centres unmarked) [Example 29, N-({2-[4-methoxy-3-(pyridin-2-ylethynyl)benzoyl]-1,2,3,4-tetrahydroisoquinolin-4-yl}methyl)aniline] | 68 | 447 |
| COc1ccc(C(=O)N2Cc3ccc([N+](=O)[O-])cc3C2)cc1C#Cc1ccccn1 [Example 35, 2-[4-methoxy-3-(pyridin-2-ylethynyl)benzoyl]-5-nitroisoindoline] | 23 | 61 |
| COc1ccc(C(=O)N2CCc3ncccc3C2)cc1C#Cc1ccccn1 [Example 39, 6-[4-methoxy-3-(pyridin-2-ylethynyl)benzoyl]-5,6,7,8-tetrahydro-1,6-naphthyridine] | 23 | 26 |
| COc1ccc(C(=O)N2CCc3ncc(C)cc3C2)cc1C#Cc1ccccn1 [Example 40, 6-[4-methoxy-3-(pyridin-2-ylethynyl)benzoyl]-3-methyl-5,6,7,8-tetrahydro-1,6-naphthyridine] | 22 | 21 |
| COc1ccc(C(=O)N2Cc3cnc(C)cc3C2)cc1C#Cc1ccccn1 [Example 41, 2-[4-methoxy-3-(pyridin-2-ylethynyl)benzoyl]-6-methyl-2,3-dihydro-1H-pyrrolo[3,4-c]pyridine] | 26 | 12 |
| COc1ccc(C(=O)N2Cc3cnc(C)c(C)c3C2)cc1C#Cc1ccccn1 [Example 42, 2-[4-methoxy-3-(pyridin-2-ylethynyl)benzoyl]-6,7-dimethyl-2,3-dihydro-1H-pyrrolo[3,4-c]pyridine] | 20 | 28 |
| COc1ccc(C(=O)N2Cc3cnc(C)c(N)c3C2)cc1C#Cc1ccccn1 [Example 44, 2-[4-methoxy-3-(pyridin-2-ylethynyl)benzoyl]-6-methyl-2,3-dihydro-1H-pyrrolo[3,4-c]pyridin-7-amine] | 20 | 14 |
| COc1ccc(C(=O)N2Cc3cnc(C)c(OC)c3C2)cc1C#Cc1ccccn1 [Example 45, 7-methoxy-2-[4-methoxy-3-(pyridin-2-ylethynyl)benzoyl]-6-methyl-2,3-dihydro-1H-pyrrolo[3,4-c]pyridine] | 31 | 35 |
| COc1ccc(C(=O)N2Cc3ccncc3C2)cc1C#Cc1ccccn1 [Example 46, 2-[4-methoxy-3-(pyridin-2-ylethynyl)benzoyl]-2,3-dihydro-1H-pyrrolo[3,4-c]pyridine] | 31 | 18 |
| COc1ccc(C(=O)N2CCc3oc(C)nc3C2)cc1C#Cc1ccccn1 [Example 47, 5-{[4-methoxy-3-(pyridin-2-ylethynyl)phenyl]carbonyl}-2-methyl-4,5,6,7-tetrahydro[1,3]oxazolo[4,5-c]pyridine] | 30 | 33 |
| COc1ccc(C(=O)N2CCc3nc(C)sc3C2)cc1C#Cc1ccccn1 [Example 48, 5-{[4-methoxy-3-(pyridin-2-ylethynyl)phenyl]carbonyl}-2-methyl-4,5,6,7-tetrahydro[1,3]thiazolo[5,4-c]pyridine] | 23 | 42 |
| COc1ccc(C(=O)N2CCc3ncc(C(F)(F)F)cc3C2)cc1C#Cc1ccccn1 [Example 52, 6-{[4-methoxy-3-(pyridin-2-ylethynyl)phenyl]carbonyl}-3-(trifluoromethyl)-5,6,7,8-tetrahydro-1,6-naphthyridine] | 29 | 49 |
| COc1ccc(C(=O)N2CCc3[nH]ncc3C2)cc1C#Cc1ccccn1 [Example 53, 5-{[4-methoxy-3-(pyridin-2-ylethynyl)phenyl]carbonyl}-4,5,6,7-tetrahydro-1H-pyrazolo[4,3-c]pyridine] | 27 | 4 |

These reach a lower Ki (rat mGluR5 receptor). Values come first.

| Ki (rat mGluR5 receptor) [nM] | IC50 [1] [nM] | SMILES |
| --- | --- | --- |
| 3 | 34 | COc1ccc(C(=O)N2CCc3cccc(OC)c3C2)cc1C#Cc1ccccn1 [Example 21, 8-methoxy-2-[4-methoxy-3-(pyridin-2-ylethynyl)benzoyl]-1,2,3,4-tetrahydroisoquinoline] |
| 8 | 61 | COc1ccc2c(c1)CCN(C(=O)c1ccc(OC)c(C#Cc3ccccn3)c1)C2 [Example 31, 6-methoxy-2-[4-methoxy-3-(pyridin-2-ylethynyl)benzoyl]-1,2,3,4-tetrahydroisoquinoline] |
| 3 | 42 | COc1ccc(C(=O)N2Cc3ccc(C)cc3C2)cc1C#Cc1ccccn1 [Example 32, 2-[4-methoxy-3-(pyridin-2-ylethynyl)benzoyl]-5-methylisoindoline] |
| 2 | 173 | COc1ccc(C(=O)N2Cc3ccc(Br)cc3C2)cc1C#Cc1ccccn1 [Example 33, 5-bromo-2-[4-methoxy-3-(pyridin-2-ylethynyl)benzoyl]isoindoline] |
| 17 | 1450 | COc1ccc(C(=O)N2Cc3cc(Cl)c(Cl)cc3C2)cc1C#Cc1ccccn1 [Example 34, 5,6-dichloro-2-[4-methoxy-3-(pyridin-2-ylethynyl)benzoyl]isoindoline] |
| 6 | 25 | COc1ccc(C(=O)N2Cc3cccc(F)c3C2)cc1C#Cc1ccccn1 [Example 36, 4-fluoro-2-[4-methoxy-3-(pyridin-2-ylethynyl)benzoyl]isoindoline] |
| 6 | 40 | COc1ccc(C(=O)N2Cc3ccc(F)cc3C2)cc1C#Cc1ccccn1 [Example 37, 5-fluoro-2-[4-methoxy-3-(pyridin-2-ylethynyl)benzoyl]isoindoline] |
| 2 | 51 | COc1ccc(C(=O)N2Cc3cccc(Cl)c3C2)cc1C#Cc1ccccn1 [Example 38, 4-chloro-2-[4-methoxy-3-(pyridin-2-ylethynyl)benzoyl]isoindoline] |
| 12 | 17 | COc1ccc(C(=O)N2Cc3cnc(C)c(Cl)c3C2)cc1C#Cc1ccccn1 [Example 43, 7-chloro-2-[4-methoxy-3-(pyridin-2-ylethynyl)benzoyl]-6-methyl-2,3-dihydro-1H-pyrrolo[3,4-c]pyridine] |
| 17 | 17 | COc1ccc(C(=O)N2CCc3cccnc3C2)cc1C#Cc1ccccn1 [Example 50, 7-{[4-methoxy-3-(pyridin-2-ylethynyl)phenyl]carbonyl}-5,6,7,8-tetrahydro-1,7-naphthyridine] |
| 13 | 30 | COc1ccc(C(=O)N2CCc3ncc(Cl)cc3C2)cc1C#Cc1ccccn1 [Example 51, 3-chloro-6-{[4-methoxy-3-(pyridin-2-ylethynyl)phenyl]carbonyl}-5,6,7,8-tetrahydro-1,6-naphthyridine] |
